{"source": "patent US9850283B2", "about": "“Macrocyclic inhibitors of the PD-1/PD-L1 and CD80(B7-1)/PD-L1 protein/protein interactions” (BRISTOL-MYERS SQUIBB COMPANY, priority 2013, dated 2017)", "key": {"[1]": {"molecular_target": "T1, LK35.2-hPD-L1 cells / PE-labeled PD-1-Ig (Homo sapiens, UniProt Q9NZQ7)", "T1 construct": "expressed in transfected cells; host or cells: LK35.2 mouse B cell line", "T1 sequence (Q9NZQ7 19-290)": "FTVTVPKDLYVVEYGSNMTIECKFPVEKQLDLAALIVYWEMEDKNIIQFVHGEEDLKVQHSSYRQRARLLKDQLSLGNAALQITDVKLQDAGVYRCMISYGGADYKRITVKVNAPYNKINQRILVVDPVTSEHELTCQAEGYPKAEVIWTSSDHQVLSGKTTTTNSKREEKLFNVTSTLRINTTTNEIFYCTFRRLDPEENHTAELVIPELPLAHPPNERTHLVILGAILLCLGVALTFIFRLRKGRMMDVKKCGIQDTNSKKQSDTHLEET", "assay": "LK35.2-hPD-L1 cell binding high-content screening assay", "assay_type": "cell-based", "conditions": "cell binding assay, cell line not given", "how_it_was_run": "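Binding of PE-conjugated human PD-1-Ig (1 nM final) to human PD-L1 stably expressed on a mouse B-cell line (LK35.2) was measured by high-content imaging after washes. Compound and labeled PD-1-Ig were co-incubated 1 h at 37 °C with cells in RPMI/10% FCS.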"}, "Human PD-L1/PD-1": {"molecular_target": "T2, Human PD-L1/PD-1 (Homo sapiens, UniProt Q9NZQ7)", "T2 construct": "made in house; host or cells: HEK293T", "T2 sequence (Q9NZQ7 with tags, fused parts or gaps)": "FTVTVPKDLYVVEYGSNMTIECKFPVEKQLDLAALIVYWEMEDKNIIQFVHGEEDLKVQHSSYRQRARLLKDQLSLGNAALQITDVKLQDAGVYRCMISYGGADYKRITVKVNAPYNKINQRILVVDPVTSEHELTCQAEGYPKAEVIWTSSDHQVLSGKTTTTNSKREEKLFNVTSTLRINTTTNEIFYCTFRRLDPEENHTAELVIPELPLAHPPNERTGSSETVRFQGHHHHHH", "assay": "HTRF PD-1-Ig/PD-L1-His binding assay (human PD-L1)", "how_it_was_run": "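Steps: truncated PD-1-Ig and PD-L1-His fusions are incubated in dPBS containing 0.1% (w/v) BSA and 0.05% (v/v) Tween-20. Detection antibodies are then added (Eu cryptate anti-Ig at 1 nM final, APC anti-His at 20 nM final), and time-resolved FRET is measured.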"}, "[2]": {"conditions": "cluster symbol, read-out: CBA IC50 cluster"}, "[3]": {"conditions": "cluster symbol, read-out: HTRF IC50 cluster"}, "[4]": {"conditions": "value given instead of cluster, read-out: CBA IC50 value"}, "[5]": {"conditions": "value given instead of cluster, read-out: HTRF IC50 value"}}, "note": "pIC50: −log10 of the molar value. Like-named read-outs stand apart in the source and are kept apart here. Starred links: 1 amine or outer side, 2 acyl side, 3 side chain; linkers in the order of their positions; H or OH if unused. Positions of bridges follow the written chain, without caps; N, C: chain ends. Non-standard residues stand in square brackets, D forms with d. Residues, ends and D or L forms follow the SMILES beside them. *: point of attachment. Phe(3,4,5-F3) = N[C@@H](Cc1cc(F)c(F)c(F)c1)C(=O)O; NHTrityl = c1ccc(C(N*)(c2ccccc2)c2ccccc2)cc1; d(cisHyp) = O=C(O)[C@H]1C[C@@H](O)CN1; NMeF = CN[C@@H](Cc1ccccc1)C(=O)O; X4 = O=C([C@H]1COCCN1[*:1])[*:2]; 3Pal = N[C@@H](Cc1cccnc1)C(=O)O; dNMeE = CN[C@H](CCC(=O)O)C(=O)O; NMeNle = CCCC[C@H](NC)C(=O)O; Orn = NCCC[C@H](N)C(=O)O; dThz = O=C(O)[C@H]1CSCN1; Sar = CNCC(=O)O"}
{"smiles": "CCCC[C@H]1C(=O)N2C[C@H](O)C[C@@H]2C(=O)N[C@H](CC(=O)NC(c2ccccc2)(c2ccccc2)c2ccccc2)C(=O)N[C@@H](C(C)C)C(=O)N(C)[C@@H](Cc2ccccc2)C(=O)N[C@@H](Cc2ccc(O)cc2)C(=O)N(C)[C@H](CCC(=O)O)C(=O)N[C@@H](Cc2c[nH]c3ccccc23)C(=O)N[C@@H](Cc2ccc(O)cc2)C(=O)N[C@@H](CCCCN)C(=O)N[C@H](C(=O)NCC(N)=O)CSCC(=O)N[C@@H](Cc2ccccc2)C(=O)N(C)[C@@H](Cc2ccccc2)C(=O)N1C", "note": "[Example 3595] ({CH2CO}-F[NMeF][NMeNle][d(cisHyp)][dD](NHTrityl)V[NMeF]Y[dNMeE]WYKCG-NH2; thioether N-13)", "values": [{"measurement": "pIC50", "setting": "[1]; CBA IC50 value, value given instead of cluster", "value": 6.91}, {"measurement": "pIC50", "setting": "Human PD-L1/PD-1; HTRF IC50 value, value given instead of cluster", "value": 6.00}]}
{"smiles": "CCCC[C@H]1C(=O)N2C[C@H](O)C[C@@H]2C(=O)N[C@@H](CC(N)=O)C(=O)N[C@@H](C(C)C)C(=O)N(C)[C@@H](Cc2ccccc2)C(=O)N[C@@H](Cc2ccc(O)cc2)C(=O)N(C)[C@H](CCC(=O)O)C(=O)N[C@@H](Cc2c[nH]c3ccccc23)C(=O)N[C@@H](Cc2ccc(O)cc2)C(=O)N[C@@H](CCCCN)C(=O)N[C@H](C(=O)NCC(N)=O)CSCC(=O)N[C@@H](Cc2cc(F)c(F)c(F)c2)C(=O)N(C)[C@@H](Cc2ccccc2)C(=O)N1C", "note": "[Example 3596] ({CH2CO}-[Phe(3,4,5-F3)][NMeF][NMeNle][d(cisHyp)]NV[NMeF]Y[dNMeE]WYKCG-NH2; thioether N-13)", "values": [{"measurement": "pIC50", "setting": "[1]; [2]", "value": "8.33 to 9.80"}, {"measurement": "pIC50", "setting": "Human PD-L1/PD-1; [3]", "value": "7.52 to 8.17"}]}
{"smiles": "CCCC[C@H]1C(=O)N2C[C@H](O)C[C@@H]2C(=O)N[C@@H](CC(=O)O)C(=O)N[C@@H](C(C)C)C(=O)N(C)[C@@H](Cc2ccccc2)C(=O)N[C@@H](CCCN)C(=O)N2CCOC[C@@H]2C(=O)N[C@@H](Cc2c[nH]c3ccccc23)C(=O)N[C@@H](Cc2ccc(O)cc2)C(=O)N[C@@H](CCCN)C(=O)N[C@H](C(=O)NCC(N)=O)CSCC(=O)N[C@@H](Cc2cc(F)c(F)c(F)c2)C(=O)N(C)[C@@H](Cc2ccccc2)C(=O)N1C", "note": "[Example 3598] ({CH2CO}-[Phe(3,4,5-F3)][NMeF][NMeNle][d(cisHyp)]DV[NMeF][Orn][X4]WY[Orn]CG-NH2; thioether N-13)", "values": [{"measurement": "pIC50", "setting": "[1]; [2]", "value": "8.33 to 9.80"}, {"measurement": "pIC50", "setting": "Human PD-L1/PD-1; [3]", "value": "8.17 to 9.41"}]}
{"smiles": "CCCC[C@H]1C(=O)N2C[C@H](O)C[C@@H]2C(=O)N[C@@H](CC(=O)O)C(=O)N[C@@H](C(C)C)C(=O)N(C)[C@@H](Cc2ccccc2)C(=O)N[C@@H](CCC(=O)O)C(=O)N2CCOC[C@@H]2C(=O)N[C@@H](Cc2c[nH]c3ccccc23)C(=O)N[C@@H](Cc2ccc(O)cc2)C(=O)N[C@@H](CCCN)C(=O)N[C@H](C(=O)NCC(N)=O)CSCC(=O)N[C@@H](Cc2cc(F)c(F)c(F)c2)C(=O)N(C)[C@@H](Cc2ccccc2)C(=O)N1C", "note": "[Example 3599] ({CH2CO}-[Phe(3,4,5-F3)][NMeF][NMeNle][d(cisHyp)]DV[NMeF]E[X4]WY[Orn]CG-NH2; thioether N-13)", "values": [{"measurement": "pIC50", "setting": "[1]; [2]", "value": "8.33 to 9.80"}, {"measurement": "pIC50", "setting": "Human PD-L1/PD-1; [3]", "value": "8.17 to 9.41"}]}
{"smiles": "CCCC[C@H]1C(=O)N2CSC[C@@H]2C(=O)N[C@@H](CC(=O)O)C(=O)N[C@@H](C(C)C)C(=O)N(C)[C@@H](Cc2ccccc2)C(=O)N[C@@H](Cc2ccc(O)cc2)C(=O)N(C)CC(=O)N[C@@H](Cc2c[nH]c3ccccc23)C(=O)N[C@@H](Cc2ccc(O)cc2)C(=O)N[C@@H](CC(C)C)C(=O)N[C@H](C(=O)NCC(N)=O)CSCC(=O)N[C@@H](Cc2ccccc2)C(=O)N(C)[C@@H](Cc2ccccc2)C(=O)N1C", "note": "[Example 3600] ({CH2CO}-F[NMeF][NMeNle][dThz]DV[NMeF]Y[Sar]WYLCG-NH2; thioether N-13)", "values": [{"measurement": "pIC50", "setting": "[1]; [4]", "value": 8.41}, {"measurement": "pIC50", "setting": "Human PD-L1/PD-1; [5]", "value": 8.21}]}
{"smiles": "CCCC[C@H]1C(=O)N(C)CC(=O)N[C@@H](CC(=O)O)C(=O)N[C@@H](C(C)C)C(=O)N(C)[C@@H](Cc2ccccc2)C(=O)N[C@@H](Cc2ccc(O)cc2)C(=O)N2CSC[C@@H]2C(=O)N[C@@H](Cc2c[nH]c3ccccc23)C(=O)N[C@@H](Cc2ccc(O)cc2)C(=O)N[C@@H](CC(C)C)C(=O)N[C@H](C(=O)NCC(N)=O)CSCC(=O)N[C@@H](Cc2ccccc2)C(=O)N(C)[C@@H](Cc2ccccc2)C(=O)N1C", "note": "[Example 3601] ({CH2CO}-F[NMeF][NMeNle][Sar]DV[NMeF]Y[dThz]WYLCG-NH2; thioether N-13)", "values": [{"measurement": "pIC50", "setting": "[1]; [4]", "value": 8.75}, {"measurement": "pIC50", "setting": "Human PD-L1/PD-1; [5]", "value": 8.16}]}
{"smiles": "CCCC[C@H]1C(=O)N(C)CC(=O)N[C@@H](CC(=O)O)C(=O)N[C@@H](C(C)C)C(=O)N(C)[C@@H](Cc2ccccc2)C(=O)N[C@@H](Cc2ccc(O)cc2)C(=O)N(C)CC(=O)N[C@@H](Cc2c[nH]c3ccccc23)C(=O)N[C@@H](Cc2ccc(O)cc2)C(=O)N[C@@H](CC(C)C)C(=O)N[C@H](C(=O)NCC(N)=O)CSCC(=O)N[C@@H](Cc2ccccc2)C(=O)N[C@@H](Cc2cccnc2)C(=O)N1C", "note": "[Example 3602] ({CH2CO}-F[3Pal][NMeNle][Sar]DV[NMeF]Y[Sar]WYLCG-NH2; thioether N-13)", "values": [{"measurement": "pIC50", "setting": "[1]; [2]", "value": "< 7.13"}, {"measurement": "pIC50", "setting": "Human PD-L1/PD-1; [3]", "value": "7.52 to 8.17"}]}
